Results published in US20230026163A1, “ANTICANCER COMPOUND AND MEDICAL USE THEREOF” (ASCENTAWITS PHARMACEUTICALS, LTD., priority 2019, published 2023).

Columns and labels:
CYP450R enzyme = molecular target: T1, CYP450R enzyme (Homo sapiens, UniProt P16435); test: Hypoxia-dependent reduction experiment with NADPH and CYP450R; assay type: biochemical; conditions: in the presence of NADPH and CYP450R enzymes
T1 sequence (P16435 1-677): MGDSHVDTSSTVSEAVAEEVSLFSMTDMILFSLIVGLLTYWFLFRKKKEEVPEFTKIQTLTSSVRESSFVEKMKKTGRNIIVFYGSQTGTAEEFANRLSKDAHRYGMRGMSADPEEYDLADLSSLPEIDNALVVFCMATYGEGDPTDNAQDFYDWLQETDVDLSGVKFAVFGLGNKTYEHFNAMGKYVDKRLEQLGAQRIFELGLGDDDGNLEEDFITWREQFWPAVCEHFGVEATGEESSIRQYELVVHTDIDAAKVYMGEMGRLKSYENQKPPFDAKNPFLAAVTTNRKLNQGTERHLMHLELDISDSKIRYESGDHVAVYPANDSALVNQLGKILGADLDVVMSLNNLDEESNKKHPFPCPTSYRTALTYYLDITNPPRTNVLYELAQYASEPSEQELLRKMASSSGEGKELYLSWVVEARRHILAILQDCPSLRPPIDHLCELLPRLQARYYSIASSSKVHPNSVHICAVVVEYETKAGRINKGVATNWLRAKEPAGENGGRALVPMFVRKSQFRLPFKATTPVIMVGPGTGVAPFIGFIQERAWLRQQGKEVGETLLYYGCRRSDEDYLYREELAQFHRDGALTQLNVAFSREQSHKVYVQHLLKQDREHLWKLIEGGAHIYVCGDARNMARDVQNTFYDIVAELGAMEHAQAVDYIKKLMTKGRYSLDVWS
Experimental: Ingredients were added to each tube without NADPH. Next, 50 μL of the condition B samples were transferred into 100 μL of acetonitrile (T=0). For the samples to be tested under hypoxia condition, the tubes were placed in a hypoxia chamber (BACTRON anaerobic/environmental chamber). The reactions were initiated by adding NADPH to tube A and tube C. Then, the samples with NADPH were placed at 37° C. For the samples to be tested in air condition, the tubes were placed in a hot plate at 37° C. After 30 minutes and 2 hours of incubation, 50 μL of samples were taken from each tube and mixed with 100 μL of acetonitrile. All tubes were spun to remove any protein precipitate and placed in HPLC vials for analysis. The results were compared with the standard curve of the authentic standard. The specific composition of the reagents in each sample reaction tube was shown as follow.
The drugs relative to the initial amount of the test drug (TH-302, compound 01) of the 3 different sample reaction tubes of A/B/C that have been reacted for different times (0/30 min/120 min). The results of adding different concentrations of human NADPH coenzyme were shown in FIG. 3 and FIG. 4, respectively.

[1] = test system: H460 non-small cell lung cancer; test: Cytotoxicity test of human tumor cell line in vitro (CTG, 72 hours); assay type: cell-based; conditions: Homo sapiens, NCI-H460; H460, 72 hours exposure
Experimental: IC50 values were obtained by the following methods. The cancer cells were exposed to various concentrations of compounds for 72 hours. Following by washing steps, fresh medium was added to allow the growth of the cancer cells. The cancer cells were stained to obtain cell viability. Then, comparisons were made with the medium-only control.
Specifically, the exponentially growing cells were seeded in 96-well plates at a density of 2×10^3 cells/well, and 100 μL/well. The cells were incubated for 24 hours at 37° C., in 5% CO2, in 95% air, and 100% relative humidity. Next, 99 μL of culture medium was added. The compounds were dissolved in 100% DMSO at 200 times the desired final test concentration. Upon addition of compounds, the compounds were further diluted to 4 times the desired final concentration with a complete medium. Aliquots of 1 μL of compounds at specific concentration were added to the micro-wells containing 199 μL of medium to obtain the final compound concentrations as reported. After the compounds were added, the plates were incubated for an addition 72 hours at 37° C., in 5% CO2, in 95% air, and 100% relative humidity.
The plates to be test containing the cells were equilibrated at room temperature for 30 minutes, and 100 μL of medium per well was discarded. 100 μL of CTG reagent (CelltiterGlo Kit) was added to each well. The plates were placed in a fast-shaker to shake for 2 minutes, and placed at room temperature for 30 minutes in the dark. Chemoluminescence signal values were read with Envision instrument.

AA8 cell line = test: Cytotoxicity on AA8 cell line (2 hours exposure, AlamarBlue); assay type: cell-based, Chinese hamster; conditions: Cricetulus griseus, CHO-AA8; AA8, 2 hours exposure, then 70 hours, normoxic
UV41 cell line = test: Cytotoxicity on UV41 cell line with DNA repair gene mutation (2 hours exposure, AlamarBlue); assay type: cell-based, Chinese hamster; conditions: Cricetulus griseus; UV41, 2 hours exposure, then 70 hours, normoxic
Experimental: UV41 cell line is a derivative of CHO-AA8 cell line, derived from the UV-sensitive line of AA8. The cell line is a cell line with damaged homologous recombination DNA repair enzymes and damaged nucleotide excision repair enzymes caused by mutations in ERCC4/XPF gene of DNA.
Specifically, the exponentially growing cells were seeded in 96-well plates at a density of 4×10^3 cells/well and incubated at 37° C., in 5% CO2, 95% air, and 100% relative humidity. Next, 24 hours later, the test compounds were added. The test compounds were dissolved in 100% DMSO at 200 times the desired final test concentration. Upon addition of the test compounds, the test compounds were further diluted with the complete medium to 4 times the desired final concentration. Aliquots of 50 μL of the compounds at specific concentrations were added to the microwells containing 150 μL of medium to obtain the final compound concentrations as reported. After the test compounds were added, the plates were incubated for an addition 2 hours at 37° C., in 5% CO2, 95% air, and 100% relative humidity. Then, the compounds were washed off, and fresh medium was added to the plates. The plates were incubated for an addition 70 hours at 37° C., in 5% CO2, 95% air, and 100% relative humidity. At the end of this incubation, AlamarBlue reagent was used to quantify viable cells.

With `O=[N+]([O-])c1ccc(C(OP(=O)(N2CC2)N2CC2)C(F)(F)F)c2ccccc12` (centres unmarked) [Compound 01] the “Reduction ratio compared with TH-302” value (CYP450R enzyme) was “similar”, the Hypoxia-dependent reduction (CYP450R enzyme; 37° C.) was “showed the hypoxia-dependent reduction reaction” and the IC50 [1] was 128 nM. For the same compound, the IC50 (AA8 cell line) was 10800 nM and the IC50 (UV41 cell line) was 340 nM.
